Here are results for three compounds from patent US9696296B2, “Targeting c-Rel O-GlcNAcylation and uses thereof” (California Institute of Technology, priority 2013, dated 2017).

Type in all cases: cell-based, human
One assay deals with Jurkat cells. The assay is described as follows: anti-CD3/CD28-induced c-Rel dependent gene expression by quantitative real time PCR. The protocol:
Jurkat cells were treated with PUGNAc (100 μM) for 12 hours and then treated with plate bound anti-CD3/CD28 (2 μg/ml) for 3 hours. Some cells were additionally treated overnight with Streptozotocin (STZ, 2 mM) prior to PUGNAc treatment. Gene expression was analyzed by quantitative real time PCR. In other cases, Jurkat T-REx cell clones expressing wild-type and mutant c-Rel were induced with doxycycline for 22 hrs, treated with PUGNAc overnight and then treated with anti-CD3/C28 for 3 hrs.
DNA-free RNA was prepared using the RNeasy Mini Kit according to the manufacturer's instructions (Qiagen). cDNA was synthesized from 0.5-1.0 μg total RNA using random hexamers (Promega) and Superscript III reverse transcriptase first-strand synthesis kit (Invitrogen, Carlsbad, Calif.). Quantitative real time PCR using cDNA corresponding to 20-60 ng of total RNA and Taqman Gene Expression Assays (Applied Biosystems, Foster City, Calif.) was performed in a Real-Time PCR machine (Realplex, Eppendorf) according to the manufacturer's instructions. The results obtained for individual genes were normalized to the expression of TFR for human genes and UBE2D2 for mouse genes. Quantitative real time PCR (qPCR) was performed at least in three independent experiments in triplicates and the relative levels of indicated genes were calculated with respect to the expression of transferrin receptor. Statistical significance was determined by two-tailed unpaired Student's t test and represented as mean±SEM.
(In general: Quantitative PCR measures a nucleic acid by following its amplification.)

In assay [1] the test system is c-Rel binding CD28RE region. Put plainly: Electrophoretic mobility shift assay, anti-CD3/CD28-induced binding of nuclear extracts to CD28RE probe. The protocol:
Jurkat cells were cultured at 1.5×10^6 cells/ml in 6-well plates or 10 cm plates in the presence of 1 μg/ml of Doxycycline for 22 hours for the induction of FLAG-c-Rel. Cells were stimulated for the indicated time points (3 hours) with plate bound anti-CD3 and anti-CD28 (2 μg/ml each). […] PLCγ, Lamin and SP1 were used as loading controls. Cytoplasmic and nuclear extracts were also prepared after culturing in the presence of 1 μg/ml of Doxycycline for 22 hours for the induction of FLAG-c-Rel. FLAG-c-Rel was immunoprecipitated and analyzed with anti-O-GlcNAc antibody.
Nuclear protein extracts were prepared as described^7. Nuclear extracts corresponding to 4-6 μg of protein were tested for DNA binding using the probes containing c-Rel binding CD28RE region and p65 binding IL2-κB region. OCT1 probe was used as a control. In the probe containing CD28RE-NF-IL-2B AP-1 region, the AP site was mutated as previously described to restrict the protein binding only to the CD28RE site in our assays. (Shapiro et al. Mol Cell Biol 17:4051-4058 (1997).) Lysates were incubated with [^32P] γATP labeled probe in the binding buffer (Tris-Cl 10 mM, pH 7.5, Nacl 50 mM, glycerol 4%, MgCl2 1 mM, EDTA 0.1 mM, poly(dI-dC) 50 μg/ml, and 0.1 mM DTT) for 20 min at room temperature. […] Samples were separated in 5% non-denaturing polyacrylamide gel and analyzed by autoradiography.
(In general: Mobility shift assays separate free from complexed probe on a gel.)

A further assay relates to p65. Put plainly: TNF-induced nuclear translocation assay, p65. Particulars: Jurkat cells, PUGNAc overnight then TNF. As to the method:
(§1) Jurkat cells were treated overnight with PUGNAc and then with TNF. Nuclear extracts were analyzed for c-Rel and p65 nuclear translocation. p105 was used as the loading control.

Assay [2] relates to c-Rel. The assay is described as follows: c-Rel O-GlcNAcylation, immunoprecipitation and anti-O-GlcNAc western blot. To be noted: Jurkat cells, 30 mM glucose, PUGNAc 100 μM for 3 hrs.
The subject of a further assay is Jurkat T-REx cell clones. The assay is described as follows: TNF-induced NF-κB-dependent gene expression by qPCR. To be noted: TNF 100 ng/ml 3 hrs, PUGNAc overnight. As to the method:
Cells were treated with TNF (100 ng/ml) for 3 hrs. Jurkat T-REx cell clones expressing wild-type and mutant c-Rel were induced with doxycycline for 22 hrs, treated with PUGNAc overnight and then treated with anti-CD3/C28 for 3 hrs. Quantitative real time PCR (qPCR) was performed at least in three independent experiments in triplicates and the relative levels of indicated genes were calculated with respect to the expression of transferrin receptor. Statistical significance was determined by two-tailed unpaired Student's t test and represented as mean±SEM.

Assay [3] concerns c-Rel. The assay is described as follows: TNF-induced nuclear translocation assay, c-Rel. To be noted: Jurkat cells, PUGNAc overnight then TNF. The protocol: as §1
Where [4] appears, read: Jurkat cells, PUGNAc 100 μM 12 hours, then anti-CD3/CD28 3 hours.

Consider `CN(N=O)C(=O)N[C@H]1C(O)O[C@H](CO)[C@@H](O)[C@@H]1O` (mixture of isomers) [Streptozotocin], for which, in the assay on Jurkat cells (STZ 2 mM overnight), the “anti-CD3/CD28-induced c-Rel-dependent gene expression (GMCSF)” value was “enhanced”.

As for `[N-]=[N+]=CC(=O)CC[C@H](N)C(=O)O` [DON, 6-diazo-5-oxo-L-norleucine], in assay [1] (wild-type c-Rel expressing Jurkat cells, DON overnight), the “anti-CD3/CD28-induced CD28RE binding of nuclear extracts” value was “decreased”.

For the compound `CC(=O)N[C@H]1/C(=N/OC(=O)Nc2ccccc2)O[C@H](CO)[C@@H](O)[C@@H]1O` [PUGNAc, O-(2-acetamido-2-deoxy-D-glucopyranosylidene)amino-N-phenylcarbamate], the “TNF-induced nuclear p65 levels” value in the assay with p65 was “decreased”. In assay [1] (PUGNAc and high glucose treatment), the “anti-CD3/CD28-induced CD28RE DNA binding” value was “significantly increased”. Moreover, the “O-GlcNAcylation of c-Rel” value with c-Rel [2] is on record as “further enhanced the O-GlcNAcylation of c-Rel”. In the assay on Jurkat T-REx cell clones, the “TNF-induced expression of A20” value is recorded as “neither affected” and the “TNF-induced expression of IκBα” value is recorded as “neither affected”. Also, the “expression of c-Rel-dependent genes in wild-type versus mutant c-Rel cells” value in the assay on Jurkat cells (Jurkat T-REx clones expressing wild-type or S350A c-Rel, PUGNAc overnight, anti-CD3/CD28 3 hrs) is “significantly potentiated the expression of c-Rel-dependent genes only in wild-type c-Rel expressing cells”. Also, in the assay with Jurkat cells (setting [4]), the “anti-CD3/CD28-induced expression of GMCSF” value is reported as “significantly potentiated” and the “anti-CD3/CD28-induced expression of IL-2” value was “significantly potentiated”. Also, in the assay with Jurkat cells (PUGNAc treatment), the “TCR-induced expression of A20 and IκBα” value is listed as “did not observe any effect”. In addition, the “TNF induced c-Rel nuclear translocation” value with c-Rel [3] is “no effect”.
